# From patent publication US4235916A, “2-Methylthio-6-fluoro-9-(1-methyl-4-piperidylidene)-thioxanthene and salts thereof, neuroleptic compositions and method of use” (Kefalas A/S, priority 1977, dated 1980)
# Read-outs that look alike come from different tables or passages of the source.
# Experiments:
# [1] = Determination of LD50 (acute toxicity, i.p.); assay type: in vivo, Mice, male; conditions: for LD50 at 24 h: mouse, in vivo, ip, mice, i.p., deaths after 24 hours
# Experimental: Determination of LD50 (mg/kg i.p.)
# Mice, male, weighing from 18-25 g, fasted from 4 p.m. the day before test day.
# Four treated groups and one control group, each of 4 mice, are used.
# The test substance is suspended in methyl cellulose 0.5% and injected intraperitoneally. The animals are placed in Macrolon cages type II. […] Furthermore the results are recorded according to the punching instructions as fractions: 0/4, 1/4, 2/4, 3/4 and 4/4 where 0, 1, 2, 3 and 4 indicate the number of deaths after the dose in question.
# [2] = system: methylphenidate; assay: Methylphenidate antagonism; assay type: in vivo, male; conditions: Mus musculus, ip, mice, i.p.
# Experimental: Methylphenidate antagonism (ED50 mg/kg i.p.)
# Perspex observation cages without bottom and lid, consisting of 5 sections each measuring 12×25×30 cm. White corrugated paper. Mice, male, 18-25 g.
# 3×2 mice are used for each dose level. Two or 24 hours after injection of test substance, methylphenidate, 60 mg/kg, is injected s.c.
# After administration of methylphenidate the mice are placed in the observation cages, 2 in each cage, where they remain for exactly 1 hour. The cages are placed on corrugated paper, the corrugations facing upwards. It is examined whether the mice have been biting the corrugated paper or not. […] If one or more of the control pairs have not been biting, the test has to be repeated on a new set of mice.
# The result is stated in fractions: 0/3, 1/3, 2/3 and 3/3 where 0, 1, 2 and 3 are the number of pairs which have not been biting on receipt of the dose in question.
# [3] = system: amphetamine; assay: Amphetamine antagonism; assay type: in vivo, Rats, male; conditions: for ED50: Rattus norvegicus, ip, 2 h, rats, i.p., amphetamine sulphate 13.6 mg/kg i.v. two hours later, read-out: Amphetamine antag. (ED50)
# Experimental: Amphetamine antagonism (ED50 mg/kg i.p.)
# Perspex observation cages without bottom and lid, consisting of 5 sections each measuring 12×25×30 cm.
# The test substance is given i.p. in a reasonable dose based on the determined LD50. Two hours later an intravenous injection of amphetamine sulphate 13.6 mg/kg (~10 mg/kg amphetamine base) is given, after which the rats are placed individually in the cages. The cages are placed on white corrugated paper. Five rats are used for each dose level. Observations are made after 55 minutes and 65 minutes--observation time: 1 minute. The animals are observed for stereotypy (movements of the head, compulsive gnawing). […] If the compound has full antagonistic effect another group of rats is used at a lower dose. […] The result is stated as fractions: 0/5, 1/5, 2/5, 3/5, 4/5 and 5/5, where 0, 1, 2, 3, 4 and 5 indicate the number of rats which have not shown stereotypy at the dose in question. The results are calculated as ED50 in mg/kg.
# [4] = Catalepsy wire mesh, rat, max.; assay type: in vivo, male; conditions: rats; for Ratio Catalep./Amphetam. antag.: catalepsy ED50 (s.c.) / amphetamine antagonism ED50 (i.p.); for ED50: rat, in vivo, sc, wire mesh, maximum effect within first 6 hours
# Experimental: Catalepsy wire mesh, rat, max. (ED50 mg/kg s.c.)
# A vertical wire netting (50 cm×49 cm). The meshes (openings) of the netting are square (1 cm×1 cm). The wire diameter is 2 mm.
# The animals are labeled and used in groups of five. The test substance is injected subcutaneously (s.c.) (5 ml/kg) at 4 dose levels selected from the fixed dose scale.
# The animals are placed in the middle of the vertical wire netting 60, 120, 180, 240, 300 and 360 minutes after injection of the test compound. The animals are considered cetaleptic when they remain immobile during a period of 15 seconds. This cataleptic reaction is designated +. If the rats are "atonic" and passively slides down the wire mesh they are considered not cataleptic. If the animals climb up and down the wire mesh they are nor cataleptic. In both situations the designation - is used.
# [5] = system: physostigmine; assay: Physostigmine antagonism; assay type: in vivo, male; conditions: Mus musculus, ip, 0.5 h; mice, i.p., physostigmine 2 mg/kg i.p. thirty minutes after test substance; survivors after 60 minutes; read-out: Physostigmine antag. (ED50)
# Experimental: Physostigmine antagonism (ED50 mg/kg i.p.)
# Scopolamine bromide 0.04 mg/ml or 0.1 mg/ml.
# Physostigmine salicylate 0.2 mg/ml.
# Five mice are used for each dose level. One group, serving as positive control, is injected with scopolamine 0.4 mg/kg i.p. Thirty minutes after i.p. administration of test substance (or scopolamine), physostigmine 2 mg/kg, is injected i.p. This dose of physostigmine induces tremor with salivation, clonic convulsions, coma and death. After 60 minutes the number of survivors are counted.
# The results are recorded in fractions: 0/5, 1/5, 2/5, 3/5, 4/5 and 5/5 where 0, 1, 2, 3, 4 and 5 inducate the number of animals in which the test compound has prevented the occurrence of death.
# [6] = target: Muscarinic; assay: Muscarinic affinity binding (3H-PrBCM, whole brain P2 fraction); set-up: species or system Rats; conditions: displacement of specific 3H-PrBCM binding by 50%; rat brain, pH 7.4, 30° C.; read-out: Muscarine affinity (IC50)
# Experimental: Muscarinic affinity binding
# Sodium thiosulphate 10 mM (2.48 g/1000 ml) ^3 H-PrBCM (N-2'-chloroethyl-N-[2", 3"-^3 H2 ] propyl-2-aminoethylbenzilate,spec. act. ~28 Ci/mM).
# A rat is killed by a blow on the head and exsanguinated. The whole brain is removed and homogenized in 10 volumes of ice cold 0.32 M sucrose with a hand homogenizer. The homogenate is centrifuged at 600 g for 10 minutes (4° C.) and the pellet discarded. The supernatant is then centrifuged at 25000 g for 55 minutes (4° C.). The pellet fraction (P2) is resuspended in the same volume of 0.32 M sucrose as previously used and stored on ice.
# The aziridinium ion of ^3 H-propylbenzilyllcholine mustard (^3 H-PrBCM) is prepared by cyclization at a concentration of 130 nM in 15 mM Na-phosphate buffer (pH 7.4) for 50 minutes at 20° C. The reaction is terminated by addition of 100 volumes of ice cold buffer.
# The incubation is continued for 15 minutes and stopped by addition of 20 ml 100 mM phosphate buffer containing 10 mM sodium thiosulphate. The samples are filtered through Whatman GF/C glass fiber filters and washed with 30 ml ice cold 100 mM phosphate buffer. The filters with synaptosomes are transferred to scintillation vials and the radio-activity measured by liquid scintillation counting after addition of 10 ml Instal-Gel (Packard Inst.). All experiments are performed in triplicate.
# Specific ^3 H-PrBCM binding is defined as the total binding minus the binding in the presence of 20 μM atropine.
# [7] = system: apomorphine; assay: Apomorphine vomit; assay type: in vivo, Adult Beagle dogs; conditions: Canis lupus familiaris, sc, 4 h; Beagle dogs, s.c., four hours before apomorphine 25 μg/kg i.v.; calculated ED50 approximate; read-out: Apomorph. Vomit (ED50)
# Experimental: Adult Beagle dogs of either sex, housed individually in kennels or in cages.
# 2-4 dogs are used per dose level.
# The test compound is injected subcutanelusly in the back of the neck four hours before apomorphine, which is given intravenously in a dose of 25 μg/kg (volume 0.1 ml/kg).
# The results are given as fractions, i.e. 0/2, 1/2 or 2/2, stating the number of dogs protected against vomiting over to the number of dogs. On account of the small number of animals the calculated ED50 should be considered approximate.
# [8] = methylphenidate 60 mg/kg s.c. 2 h after test substance, read-out: Methylphenidate antag. 2h (ED50)
# [9] = methylphenidate 60 mg/kg s.c. 24 h after test substance, read-out: Methylphenidate antag. 24h (ED50)
SMILES,LD50 at 24 h [1] [mg/kg],"ED50 [2, 8] [mg/kg]",ED50 [3] [mg/kg],Ratio Catalep./Amphetam. antag. [4],ED50 [4] [mg/kg],ED50 [5] [mg/kg],"ED50 [2, 9] [mg/kg]",IC50 [6] [nM],ED50 [7] [mg/kg],"acute toxicity, in words ([1]; compared with Lu 14-089 or related thioxanthene derivatives)","neuroleptic activity as expressed by the amphetamine antagonism, in words ([3]; compared with Lu 14-089)"
"CN1CCC(=C2c3ccc(F)cc3Sc3ccc(Cl)cc32)CC1 [Lu 12-304, 2-Chloro-6-fluoro-9-(1-methyl-4-piperidylidene)-thioxanthene]",187,4.6,5.5,0.62,3.4,8.9,–,–,–,–,–
"CN1CCC(=C2c3ccc(F)cc3Sc3ccc(C(F)(F)F)cc32)CC1 [Lu 12-312, 2-Trifluoromethyl-6-fluoro-9-(1-methyl-4-piperidylidene)-thioxanthene]",188,0.07,0.56,0.12,0.067,7.7,2.1,18,0.04,–,–
"CN1CCC(=C2c3ccccc3Sc3ccc(C(F)(F)F)cc32)CC1 [Lu 13-003, 2-Trifluoromethyl-9-(1-methyl-4-piperidylidene)-thioxanthene]",187,0.15,0.37,3.5,1.3,4.6,–,8,–,–,–
"CN1CCC(=C2c3ccccc3Sc3ccc(Cl)cc32)CC1 [Lu 13-016, 2-Chloro-9-(1-methyl-4-piperidylidene)-thioxanthene]",226,1,3.9,6.5,25,4.4,> 20,14,–,higher acute toxicity,much lower neuroleptic activity
"CSc1ccc2c(c1)C(=C1CCN(C)CC1)c1ccccc1S2 [Lu 14-145, 2-Methylthio-9-(1-methyl-4-piperidylidene)-thioxanthene]",188,1.4,> 20,–,> 20,4.9,14,13,–,–,–
CN(C)CCCN1c2ccccc2Sc2ccc(Cl)cc21 [chlorpromazine],226,4,7.1,–,5.6,> 40,20,–,0.36,–,–
CN(C)CC/C=C1/c2ccccc2Sc2ccc(Cl)cc21 [chlorprothixene],226,0.71,6.1,–,4,86,> 20,–,0.9,–,–
OCCN1CCN(CCC=C2c3ccccc3Sc3ccc(Cl)cc32)CC1 [clopenthixol],226,1.2,0.77,–,0.95,> 20,–,–,0.04,–,–
CN1CCN(C2=Nc3cc(Cl)ccc3Nc3ccccc32)CC1 [clozapine],> 320,> 160,> 40,–,85,24,–,–,~4,–,–
OCCN1CCN(CCC=C2c3ccccc3Sc3ccc(C(F)(F)F)cc32)CC1 [flupentixol],246,0.2,0.69,0.36,0.25,> 40,> 20,4000,0.02,–,–
OCCN1CCN(CCCN2c3ccccc3Sc3ccc(C(F)(F)F)cc32)CC1 [fluphenazine],259,0.04,0.08,–,0.099,> 20,3.6,–,0.007,–,–
O=C(CCCN1CCC(O)(c2ccc(Cl)cc2)CC1)c1ccc(F)cc1 [haloperidol],226,0.06,0.14,–,0.21,> 20,–,–,0.01,–,–
